Assay results as given in patent US10258635B2, “Formulations and compositions of vitamin D analogs for treating and preventing cancer and other diseases” (priority 2013, dated 2019).
Entries after “also recorded” stand apart in the source; their conditions may differ.

Legend:
[1] = tested on: 24-OHase; experiment: Message for 24-OHase in LNCaP cells; format: cell-based
[2] = tested on: LNCaP prostate cancer cells; experiment: Cell-counting antiproliferative evaluation, LNCaP; format: cell-based; details: Calcitrol 10^−6M, AMPI-107 10^−5M; dosed days 1, 3, 5, counted 7th day
Experimental: (§1) Prostate cancer cells (DU-145, PC-3 and LNCaP) were grown in DMEM medium with 10% FBS, antibiotics, etc. […] Results are designated as percentage of ethanol control.

[3] = tested on: DU-145 Prostate Cancer Cells; experiment: Cell-counting antiproliferative evaluation, DU-145; format: cell-based, human; details: Calcitrol 10^−6M, AMPI-107 10^−5M; dosed days 1, 3, 5, counted 7th day
Experimental: as §1

[4] = tested on: DU 145 human androgen-insensitive prostate cancer cells; experiment: AMPI-107 in DU 145 xenograft, p.o. administration (Example 17); format: in vivo
Excerpt: (§2) Male, athymic mice (average weight 20 gm) were fed normal rat chow and water ad libitum. They were inoculated with DU 145 human androgen-insensitive prostate cancer cells (10^6), grown in culture in the flank under light anesthesia. […] Treatment started on day 11 and stopped on day 30; and they were left untreated for two (2) additional days when they were sacrificed.

[5] = tested on: DU 145 human androgen-insensitive prostate cancer cells; experiment: AMPI-107 in DU 145 xenograft, i.p. administration (Example 17); format: in vivo
Excerpt: as §2

[6] = tested on: DU-145 cells; experiment: 3H-thymidine incorporation assay in DU-145 cells; format: cell-based, human; details: for anti-proliferative effect in DU-145 cells: 10^−6M, separate experiment
[7] = tested on: MCF-7 (breast cancer) cells; experiment: 3H-thymidine incorporation assay, MCF-7; format: cell-based; details: 10^−6M
Experimental: (§3) Antiproliferation studies of keratinocytes (normal skin), MCF-7 (breast cancer), PZ-HPV-7 (immortalized normal prostate), LNcap (androgen-sensitive prostate cancer) and PC-3 (androgen-insensitive prostate cancer) cells, treated with 10^−6M of 25-OH-D3-3-BE (AMPI-105) or 1,25(OH)2D3 (bioactive Vitamin D3 hormone) were performed with a ^3H-thymidine incorporation assay
(§4) PZ-HPV-7 cells were grown in MCDB media containing pituitary extract, epidermal growth factor (EGF) and 1% penicillin/streptomycin. Keratinocytes were also grown in the same media with additional PG1 and insulin. PC-3, LNCaP, DU-145 cells were grown in RPMI media containing 10% fetal bovine serum (FBS) and antibiotics. MCF-7 cells were grown in DMEM media containing 10% FBS and antibiotics. LAPC-4 cells were maintained in IMEM media containing antibiotics, 1° % L-glutamine and 10 nM of R1881, a synthetic […]. MC3T3 mouse bone cells were grown in α-MEM media containing 10% FBS and antibiotics. In general, cells were grown in 35 mm dishes to 70-80% confluence and then plated into 24-well plates in respective media. After the cells grew to approximately 70% confluence, they were serum-starved for 20 hours (MCF-7, PC-3, LNCaP and DU-145 cells) followed by incubation with steroid samples. […]

[8] = tested on: keratinocytes (normal skin); experiment: 3H-thymidine incorporation assay, keratinocytes; format: cell-based; details: 10^−6M
Experimental: as §3, §4

[9] = tested on: PZ-HPV-7 (immortalized normal prostate) cells; experiment: 3H-thymidine incorporation assay, PZ-HPV-7; format: cell-based
Experimental: as §3, §4

[10] = tested on: LNCaP (androgen-sensitive prostate cancer) cells; experiment: 3H-thymidine incorporation assay, LNCaP (Example 13); format: cell-based
Experimental: as §3
(§5) PZ-HPV-7 cells were grown in MCDB media containing pituitary extract, epidermal growth factor (EGF) and 1% penicillin/streptomycin. Keratinocytes were also grown in the same media with additional PG1 and insulin. PC-3, LNCaP, DU-145 cells were grown in RPMI media containing 10% fetal bovine serum (FBS) and antibiotics. MCF-7 cells were grown in DMEM media containing 10% FBS and antibiotics. LAPC-4 cells were maintained in IMEM media containing antibiotics, 1° % L-glutamine and 10 nM of R1881, a synthetic […]. MC3T3 mouse bone cells were grown in α-MEM media containing 10% FBS and antibiotics. In general, cells were grown in 35 mm dishes to 70-80% confluence and then plated into 24-well plates in respective media. After the cells grew to approximately 70% confluence, they were serum-starved for 20 hours (MCF-7, PC-3, LNCaP and DU-145 cells) followed by incubation with steroid samples. Keratinocytes and PZ-HPV-7 cells, after reaching 70% confluence, were kept in MCDB media without additives for 20 hours before treatment with steroids. In general, reagents were dissolved in ethanol (EtOH), and dilution with the media was adjusted in such a way that the concentration of EtOH was 0.1% v/v.
(§6) Assays were carried out with six (6) replicates and student's t-test was employed for statistical analysis. Results are expressed relative to EtOH (100%) in FIG. 24.

[11] = tested on: PC-3 (androgen-insensitive prostate cancer) cells; experiment: 3H-thymidine incorporation assay, PC-3; format: cell-based; details: 10^−6 M; for growth reduction of PC-3 cells: relative to EtOH
Experimental: as §3, §5, §6

[12] = tested on: MC3T3 mouse bone cells; experiment: Cell counting assay, MC3T3; format: cell-based; details: 48 hr; 10^−6 M 25-OH-D3-3-BE, 10^−7 M 1,25(OH)2D3; not serum-starved
Experimental: as §5
(§7) It should be noted that in this assay cells were not serum-starved prior to addition of the reagents, and 10^−7 M of 1,25(OH)2D3 had little effect on all the cells.

[13] = tested on: LNCaP cells; experiment: Cell counting assay, LNCaP; format: cell-based; details: 24 hours; 10^−6 M 25-OH-D3-3-BE, 10^−7 M 1,25(OH)2D3; not serum-starved
Experimental: as §5, §7

[14] = tested on: DU 145 cells; experiment: Efficacy study of 25-OH-D3-3-BE in DU 145 tumor-bearing athymic nude mice (oral gavage); format: in vivo; details: for average tumor volume at the end of treatment: oral gavage every third day, day 11 to 31; for anti-tumor effect: mouse prostate tumor xenograft model
Experimental: Male, athymic nude mice (average weight 20 gm) were fed normal rat chow and water ad libitum. They were inoculated with DU 145 cells, grown in culture, in the flank under light anesthesia. […] Administration of the compound was done by oral gavage on every third day (when weights were determined). Treatment started on day 11 and stopped on day 31; and they were left untreated for several additional days (as shown in FIG. 26) when they were sacrificed and blood was collected.

[15] = tested on: MCF-7 cells; experiment: Cell counting assay, MCF-7; format: cell-based; details: 48 hr; 10^−6 M 25-OH-D3-3-BE, 10^−7 M 1,25(OH)2D3; not serum-starved
Experimental: as §5, §7

[16] = tested on: LAPC-4 cells; experiment: Cell counting assay, LAPC-4; format: cell-based; details: 24 hours; 10^−6 M 25-OH-D3-3-BE, 10^−7 M 1,25(OH)2D3; not serum-starved
Experimental: as §5, §7

[17] = tested on: normal kidney cells; experiment: 3H-thymidine incorporation assay in normal kidney cells; format: cell-based; details: 10^−6M
[18] = tested on: Normal prostate WPMY cells; experiment: Viability testing by MTT reduction in normal prostate cells; format: cell-based; details: 24 hours; AMPI-107 1 and 10 μM, Calcitrol 1 μM
Experimental: MTT is reduced in metabolically active cells, in part by the action of dehydrogenase enzymes, to generate reducing equivalents such as NADH and NADPH. The resulting intracellular purple formazan can be solubilized and quantified by spectrophotometry. After 5 minutes at room temperature, absorbances in plates were measured using a plate analyzer set for in dual wavelength comparisons at wavelength of 540 nm with a reference wavelength of 620 nm.

[19] = tested on: DU-145 human prostate cancer cells; experiment: DU-145 xenograft efficacy, p.o. administration (Example 11); format: in vivo, nude mice; details: p.o.; calcitriol 0.5 μg/kg and 1.0 μg/kg; AMPI-109 0.5 μg/kg
[20] = tested on: RCC 54 kidney cancer cells; details: 7.5×10^−7 to 10^−6M
Experimental: In a typical assay cells were grown to 50-60% confluence in 24-well plates in respective media containing 5% FBS, and serum starved for 20 hours, followed by treatment with various agents (in 0.1% ethanolic solution) or ethanol (vehicle) in serum-containing medium for 16 hours. After the treatment media was removed from the wells and replaced with media containing ^3H-thymidine (Sigma, 0.1 μCi) per well, and the cells were incubated for 3 hours at 37° C. After this period media was removed by aspiration and the cells were washed thoroughly (3×0.5 ml) with PBS. Ice-cold 5% perchloric acid solution (0.5 ml) was added to each well and the cells were incubated on ice for 20 minutes. After this incubation, perchloric acid was removed by aspiration, replaced with 0.5 ml of fresh perchloric acid solution and the cells were incubated at 70° C. for 20 minutes. Solution from each well was mixed with scintillation fluid and counted in a liquid scintillation counter. There were eight (8) wells per sample; statistics was carried out by Student's t test.

[21] = tested on: PC-3 Prostate Cancer Cells; experiment: Cell-counting antiproliferative evaluation, PC-3; format: cell-based; set-up: dose or concentration left out as unconfirmed; details: dosed days 1, 3, 5, counted 7th day
Experimental: as §1

C=C1/C(=C\C=C2/CCC[C@]3(C)[C@@H]([C@H](C)/C=C/[C@@H](O)C4(C(=O)OCCCC)CC4)CC[C@@H]23)C[C@@H](O)C[C@@H]1O [ZK 159222]
message for 24-OHase [1]: obliterated

Vitamin D3-3-epoxide [AMPI-107]
growth inhibition of LNCaP cells [2]: strongly inhibited the growth and significantly stronger effect and more
growth inhibitory activity in DU-145 cells [3]: approximately similar growth inhibitory activity; also recorded: equally effective
efficacy on tumor size ([4]; 1 mg/kg p.o. every third day, day 11 to 30): strongly reduced tumor size
toxicity (body weight) ([4]; p.o., hormone 0.5 and 1.0 μg/kg, MPI 107 1 mg/kg): completely non-toxic
efficacy on tumor size ([5]; 1 mg/kg i.p. every third day, day 11 to 30): strongly reduced tumor size
toxicity (body weight) ([5]; i.p., hormone 0.5 and 1.0 μg/kg, MPI 107 1 mg/kg): completely non-toxic

C=C1/C(=C\C=C2/CCC[C@]3(C)[C@@H]([C@H](C)/C=C/C=C/C(O)(CC)CC)CC[C@@H]23)C[C@@H](O)C[C@@H]1O [EB-1089, reference compound]
anti-proliferative effect in DU-145 cells [6]: failed to produce any discernible anti-proliferative effect

C=C1CCC(OC(=O)CBr)CC1=CC=C1CCCC2(C)C1CCC2C(C)CCCC(C)(C)O (stereo not drawn) [AMPI-105, 25-hydroxyvitamin D3-3-bromoacetate]
growth inhibition in MCF-7 cells relative to 1,25(OH)2D3 [7]: weaker than 1,25(OH)2D3
growth inhibition in keratinocytes relative to 1,25(OH)2D3 [8]: stronger than an equivalent amount of 1,25 (OH)2D3
growth inhibition of PZ-HPV-7 cells ([9]; 10^−6 M, relative to EtOH): approximately 50%
cytotoxicity to LNCaP cells ([10]; 10^−6 M, phase contrast microscope): cytotoxic
growth inhibition of LNCaP cells ([10]; 10^−6 M, relative to EtOH): ~98%
cytotoxicity to PC-3 cells ([11]; phase contrast microscope): cytotoxic
growth reduction of PC-3 cells [11]: 90%
number of MC3T3 cells [12]: affected to a much lesser extent
number of LNCaP cells [13]: sharply reduced number of cells
average tumor volume at the end of treatment ([14]; 0.25 μg/kg): 650 mm^3
average tumor volume at the end of treatment ([14]; 0.5 μg/kg): 500 mm^3
gross weight of the animals versus untreated ([14]; during and after the treatment): no significant difference
anti-tumor effect [14]: strong anti-tumor activity
anti-tumor effect ([14]; listed as 25-OH-D3-3-BE): dose-dependent anti-tumor effect
number of MCF-7 cells [15]: affected to a much lesser extent
number of LAPC-4 cells [16]: sharply reduced number of cells

25-hydroxyvitamin D3-3-epoxide [AMPI-106]
anti-tumor effect [14]: strong anti-tumor activity

C=C1CC[C@H](O)C/C1=C/C=C1\CCC[C@]2(C)[C@@H]([C@H](C)CCCC(C)(C)O)CC[C@@H]12 [25-OH-D3, 25-hydroxyvitamin D3, reference compound]
growth reduction of PC-3 cells [11]: marginal antiproliferative effect

C=C1/C(=C\C=C2/CCC[C@]3(C)[C@@H]([C@H](C)CCCC(C)(C)O)CC[C@@H]23)C[C@@H](O)C[C@@H]1O [calcitriol, 1,25-dihydroxyvitamin D3, reference compound]
impact on normal kidney cells versus control [17]: neither Calcitriol nor AMPI-109 had any statistically different impact
cell metabolism (MTT reduction) [18]: slightly, but significantly reduce cell metabolism
body weight [19]: significant loss in body weight
growth inhibition of LNCaP cells [2]: strongly inhibited the growth
inhibition at 1 µM ([9]; Prostate cell, read-out: growth inhibition of PZ-HPV-7 cells): ~65%
antiproliferative effect in DU-145 cells ([6]; 2.5×10^−7M to 10^−6M, 20 hours): no effect
anti-proliferative effect in DU-145 cells [6]: failed to produce any discernible anti-proliferative effect
inhibition at 1 µM ([10]; Homo sapiens, LNCaP, read-out: growth inhibition of LNCaP cells): ~60%
growth reduction of PC-3 cells [11]: 70%
number of MC3T3 cells [12]: little effect
number of LNCaP cells [13]: little effect
growth inhibitory activity in DU-145 cells [3]: approximately similar growth inhibitory activity
number of MCF-7 cells [15]: little effect
message for 24-OHase [1]: up regulated
number of LAPC-4 cells [16]: little effect
reduction of proliferation of RCC 54 kidney cancer cells [20]: did not have any statistically different impact
toxicity (body weight) ([4]; mouse, in vivo, po, 1 mg/kg): clearly toxic as evidenced by considerable loss of body weight
toxicity (body weight) ([5]; mouse, in vivo, ip, 1 mg/kg): clearly toxic as evidenced by considerable loss of body weight
growth inhibition of PC-3 cells [21]: strongly inhibited the growth
